# Results taken from US20250387354A1 (SpringWorks Therapeutics, Inc., priority 2024, published 2025).
# Tested on: NF1-associated plexiform neurofibromas (PNs)
# Assay: Phase 2b trial of mirdametinib: confirmed objective response by BICR volumetric MRI per REiNS criteria
# Format: in vivo, human
# Method: Study treatment was administered orally at a twice daily (BID) dose specified in the table below. Dosing was on a 28-day Cycle (4-week course) with a 3 week on/1 week off schedule. The treatment period will last for up to 24 Cycles followed by a 30-day Safety Follow-Up period.
# A partial response was defined as PN decrease ≥20% compared to baseline using centrally read MRI volumetric analysis.
# The major efficacy outcome measure was confirmed objective response rate (ORR), defined as the percentage of patients with complete response (disappearance of the target PN) or confirmed partial response ([…]). Responses were assessed by blinded independent central review (BICR) using volumetric magnetic resonance imaging (MRI) analysis per Response Evaluation in Neurofibromatosis and Schwannomatosis (REINS) criteria. A secondary efficacy objective was to determine the duration of response for patients who achieved a confirmed objective response.
smiles,measurement,setting,value
"O=C(NOC[C@H](O)CO)c1ccc(F)c(F)c1Nc1ccc(I)cc1F (single isomer, unassigned) [mirdametinib]",ORR also considering confirmed objective responses after cycle 24,adults,45%
same,ORR also considering confirmed objective responses after cycle 24,pediatric patients,54%
